Laboratory results reported in patent US7005431B2, “Imidazo-triazine derivatives as ligands for gaba receptors” (Merck Sharp & Dohme Ltd., priority 2002, dated 2006).

Structure (SMILES) | melting point [°C]
CC(C)(F)c1cnn2c(-c3ccc(F)c(-c4ccc(F)cc4C#N)c3F)cnc2n1 [Example 3, 3′-[3-(1-Fluoro-1-methylethyl)imidazo[1,2-b][1,2,4]triazin-7-yl]-4,2′,6′-trifluorobiphenyl-2-carbonitrile] | 166 to 169
CC(C)(O)c1cnn2c(-c3ccc(F)c(-c4c(F)cccc4C#N)c3F)cnc2n1 [Example 2, 3′-[3-(1-Hydroxy-1-methylethyl)imidazo[1,2-b][1,2,4]triazin-7-yl]-6,2′,6′-trifluorobiphenyl-2-carbonitrile] | 177 to 179
